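Cells were grown in 96-well plates and exposed to each compound for 48 hours at five concentrations; endpoints were interpolated linearly between bracketing concentrations, or set to the highest concentration if not reached. GI50 marks 50% less growth. TGI: total growth inhibition.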
Tests used:
Test in all cases: growth of human tumour cells (NCI), 48 h
[1] = tested on: HCT-116 colon
[2] = tested on: HL-60(TB) leukemia
[3] = tested on: HOP-62 NSCLC
[4] = tested on: HT29 colon
[5] = tested on: MDA-MB-435
[6] = tested on: MDA-N
[7] = tested on: NCI-H460 lung
[8] = tested on: NCI/ADR-RES ovarian
[9] = tested on: OVCAR-8 ovarian
[10] = tested on: SF-295 CNS
[11] = tested on: SF-539 CNS
[12] = tested on: SK-MEL-2 melanoma
[13] = tested on: SK-MEL-28 melanoma
[14] = tested on: SK-OV-3 ovarian
[15] = tested on: SR leukemia
[16] = tested on: T-47D breast
[17] = tested on: U251 CNS

Row | Compound | TGI [1] [µM] | TGI [2] [µM] | TGI [3] [µM] | TGI [4] [µM] | TGI [5] [µM] | TGI [6] [µM] | TGI [7] [µM] | TGI [8] [µM] | TGI [9] [µM] | TGI [10] [µM] | TGI [11] [µM] | TGI [12] [µM] | TGI [13] [µM] | TGI [14] [µM] | TGI [15] [µM] | TGI [16] [µM] | TGI [17] [µM] | GI50 [8] [µM]
1 | O=[N+]([O-])c1ccc(S(=O)(=O)N=Ic2ccccc2)cc1 | > 100 | > 100 | > 100 | > 100 | > 100 | > 100 | > 100 | > 100 | > 100 | > 100 | > 100 | > 100 | > 100 | > 100 | > 100 | > 100 | > 100 | –
2 | COc1cc(C2SCC(=O)N2c2ccc(Cl)c(Cl)c2)cc(OC)c1OC (stereo unspecified) | > 100 | > 73.9 | > 100 | > 100 | 34 | 45.9 | > 100 | > 100 | > 100 | > 100 | > 100 | > 100 | > 100 | > 100 | 83.8 | > 63.6 | > 100 | –
3 | CC(C)(C)C(=O)OC(N)/C=C/c1ccccc1 (stereo unspecified) | > 100 | > 100 | > 100 | > 100 | > 100 | > 100 | > 100 | > 100 | > 100 | > 100 | > 100 | > 100 | > 100 | > 100 | > 100 | > 100 | > 100 | –
4 | Cc1cc(C)nc(NS(=O)(=O)c2ccc(NNC(=O)c3cccc4c(=O)c5ccccc5[nH]c34)cc2)n1 | > 100 | > 100 | > 100 | > 100 | > 100 | > 100 | > 100 | > 100 | > 100 | > 100 | > 100 | 76.5 | 82.8 | > 100 | > 100 | > 100 | > 100 | –
5 | C[C@H]1C2Cc3cc(N)ccc3[C@@]1(C)CCN2CCc1ccccc1 | > 100 | 87.7 | > 100 | > 100 | > 100 | > 100 | > 100 | > 100 | > 100 | 98.8 | > 100 | > 100 | > 100 | > 100 | > 100 | > 100 | > 100 | –
6 | N#C/C(N)=C(\C#N)NC=NCc1ccccc1 | > 100 | > 100 | > 100 | > 100 | > 100 | > 100 | > 100 | > 100 | > 100 | > 100 | > 100 | > 100 | > 100 | > 100 | > 100 | > 100 | > 100 | –
7 | CCOC(=O)NC1CN2CCC1CC2 (stereo unspecified) | > 100 | > 100 | > 100 | > 100 | > 100 | > 100 | > 100 | > 100 | > 100 | > 100 | > 100 | > 100 | > 100 | > 100 | > 100 | > 100 | > 100 | –
8 | COc1ccc(C(OC(C)=O)C2C(=C(C#N)C#N)c3ccccc3C2=C(C#N)C#N)cc1 (stereo unspecified) | > 100 | 41.9 | 62.6 | 95.1 | > 100 | > 100 | > 100 | > 100 | > 100 | 64.6 | 49.7 | 83.8 | > 100 | 62.8 | 41 | > 100 | > 100 | –
9 | O=C(c1cc(Cl)cc(Cl)c1)N1CCN(C(=O)c2cc(Cl)cc(Cl)c2)C1=S | 30 | 6.28 | 33.8 | 51.9 | 29.9 | 34.5 | 37.2 | > 100 | 44.5 | 44.7 | 22.7 | 34.1 | > 54.5 | 29.8 | 11.3 | 45.2 | 26.4 | 31.7
10 | COc1ccc(CN(Cc2ccc(OC)cc2)C(=O)CC2(O)C=CCC2)cc1 (stereo unspecified) | > 100 | > 100 | > 100 | > 100 | > 100 | > 100 | > 100 | > 100 | > 100 | > 100 | > 100 | > 100 | > 100 | > 100 | > 100 | > 100 | > 100 | –
